Like-named read-outs stand apart in the source and are kept apart here.
Columns and labels:
HL-60 cells [1] = experiment: MTT in vitro cytotoxicity assay, HL-60; type: cell-based; settings: 48 h incubation, mean ± SEM, read-out: IC50 HL-60
Description: (§1) The promyelocytic leukemia HL-60 and breast cancer adenocarcinoma MCF-7 cell lines were purchased from the European Collection of Cell Cultures (ECACC). Leukemia cells were cultured in RPMI 1640 plus GlutaMax I medium (Gibco/Life Technologies, Carlsbad, CA, USA). MCF-7 cells were maintained in Minimum Essential Medium Eagle (Sigma Aldrich, St. Louis, MO, USA) and supplemented with 2 mM glutamine and men non-essential amino acid solution (Sigma Aldrich, St. Louis, MO, USA). Both media were supplemented with 10% heat-inactivated fetal bovine serum (Biological Industries, Beit-Haemek, Israel) and antibiotics (100 U/mL penicillin and 100 μg/mL streptomycin) (Sigma-Aldrich, St. Louis, MO, USA). Human umbilical vein endothelial cells (HUVECs) were purchased from the American Type Culture Collection (ATCC). Cells were cultured using EGM-2 Endothelial Medium BulletKit purchased from Lonza (Lonza, Walkersville, MD, USA). Cells were maintained at 37 °C in 5% CO2 atmosphere and grown until 80% confluent.
(§2) The tested compounds were dissolved in sterile dimethyl sulfoxide (DMSO) and further diluted with culture medium. The final concentration of DMSO in cell cultures was less than 0.1% v/v. Controls without and with 0.1% DMSO were performed in each experiment. At the used concentration, DMSO had no effect on the observed parameters.
(§3) The MTT (3-(4,5-dimethylthiazol-2-yl)-2,5-diphenyltetrazolium bromide) assay, which measures the activity of cellular dehydrogenases, was performed according to the Mosmann method. Exponentially growing cells were seeded into 24-well plates at a density of 8 × 10^4 cells/mL and left to grow for 24 h. After 24 h or 48 h of incubation with various concentrations of the tested compounds (dissolved in DMSO and diluted with complete culture medium), cells were incubated with 0.1 mL of MTT solution (5 mg/mL in phosphate buffered saline) for 1.5 h. The metabolically active cells reduced MTT to blue formazan crystals. The plates were centrifuged, and the supernatant was discarded. DMSO (1 mL) was added to each well to dissolve the crystals, whose absorbance was measured at 560 nm using FlexStation 3 Multi-Mode Microplate Reader (Molecular Devices, LLC, San Jose, CA, USA). The untreated cells were used as control. The IC50 values were calculated from the concentration–response curves. The data were expressed as mean ± SEM of three independent experiments.

HUVEC cells = experiment: MTT in vitro cytotoxicity assay, HUVEC (normal cells); type: cell-based, human; settings: 48 h incubation, mean ± SEM
Description: as §1, §2, §3

MCF-7 cells = experiment: MTT in vitro cytotoxicity assay, MCF-7; type: cell-based; settings: mean ± SEM
Description: as §1, §2, §3

HL-60 cells [2] = experiment: Apoptosis by cleaved PARP (Asp214) staining, flow cytometry; type: cell-based; settings: 24 h, control 1.4%
Description: To evaluate the anticancer potential of 5a, the ability of this compound to inhibit cell proliferation, induce apoptotic cell death, and generate DNA damage was examined by flow cytometry using the ‘Apoptosis, DNA Damage, and Cell Proliferation Kit’ (BD Bioscience). After 24 h treatment with 5a in increasing concentrations, HL-60 cells were exposed to bromodeoxyuridine (BrdU) for additional 8 h. Then, the cells were simultaneously stained with fluorochrome-labeled anti-BrdU, anti-cleaved PARP (Asp214) and anti-H2AX (pS139).
To check whether the cytotoxic effect of 5a was associated with the induction of apoptosis, the pro-apoptotic activity of this compound was investigated. Apoptosis regulation is triggered by the activation of caspases. Caspase-3, an effector caspase, cleaves a number of vital proteins, leading to cell death. The activity of caspase-3 was assessed by flow cytometry using fluorochrome-labeled antibodies recognizing 89 kDa-cleaved PARP fragments released from PARP by caspase-3 in the executive stage of apoptosis.
Cell proliferation, DNA damage, and apoptotic cell death were determined using Apoptosis, DNA Damage, and Cell Proliferation Kit (BD Bioscience, San Jose, CA, USA), according to the manufacturer protocol. Briefly, HL-60 cells were seeded in 6-well plates (4.0 × 10^5 cells/mL) in 2 mL of growth medium and treated with 5a for 24 h. Afterwards, the bromodeoxyuridine (BrdU, 10 µM) was added and the cells were incubated for additional 8 h. Next, the cells were collected by centrifugation (300× g, 5 min), counted, fixed, and permeabilized according to the manufacturer’s instructions. The cells were incubated with DNase (300 µg/mL in PBS) for 1 h at 37 °C and then simultaneously stained with fluorochrome-labeled anti-BrdU, H2AX (pS139), and cleaved PARP (Asp214) antibodies, for 20 min at room temperature. After washing, DNA staining with DAPI (1 µg/mL of the staining buffer) was performed, and the cells were analyzed by flow cytometry using CytoFLEX (Beckman Coulter, Inc., Brea, CA, USA).

[3] = Homo sapiens, MCF7, 48 h incubation

Row | Compound | IC50 (HL-60 cells [1]) [nM] | IC50 (HUVEC cells) [nM] | IC50 (MCF-7 cells; 48 h incubation) [nM] | IC50 (HL-60 cells [1]; Homo sapiens, HL-60, 48 h) [nM] | IC50 (HUVEC cells; Homo sapiens, HUVEC) [nM] | IC50 (MCF-7 cells; [3]) [nM] | melting point [°C] | apoptotic cells (cleaved PARP positive) population (HL-60 cells [2]; 1.35 µM) [%] | apoptotic cells (cleaved PARP positive) population (HL-60 cells [2]; 1.8 µM) [%]
1 | N.N.O=C([O-])C1(C(=O)[O-])CCC1.[Pt+2] [Carboplatin, reference compound] | 3800 ± 450 | 5350 ± 50 | 2900 ± 100 |  |  |  |  |  | 
2 | C=C1C(=O)c2ccccc2N(S(=O)(=O)c2ccccc2)C1C(C)C (stereo not shown) [Compound 5b, 3-Methylidene-1-(phenylsulfonyl)-2-(propan-2-yl)-2,3-dihydroquinolin-4(1H)-one] | 290 ± 20 |  |  | < 300 | 780 ± 210 | 830 ± 20 | 86 |  | 
3 | C=C1C(=O)c2ccccc2N(S(=O)(=O)c2ccccc2)C1c1ccccc1 (stereo not shown) [Compound 5c, 3-Methylidene-2-phenyl-1-(phenylsulfonyl)-2,3-dihydroquinolin-4(1H)-one] |  |  |  | 1360 ± 130 |  | 2250 ± 200 | 150 |  | 
4 | C=C1C(=O)c2ccccc2N(S(=O)(=O)c2ccccc2)C1c1ccc(OC)cc1 (stereo not shown) [Compound 5d, 2-(4-Methoxyphenyl)-3-methylidene-1-(phenylsulfonyl)-2,3-dihydroquinolin-4(1H)-one] |  |  |  | 1120 ± 370 |  | 1210 ± 240 | 152 |  | 
5 | C=C1C(=O)c2ccccc2N(S(=O)(=O)c2ccc(Cl)cc2)C1CC (stereo not shown) [Compound 5e, 1-((4-Chlorophenyl)sulfonyl)-2-ethyl-3-methylidene-2,3-dihydroquinolin-4(1H)-one] |  |  |  | 370 ± 50 | 750 | 1610 ± 70 | 118 |  | 
6 | C=C1C(=O)c2ccccc2N(S(=O)(=O)c2ccc(Cl)cc2)C1C(C)C (stereo not shown) [Compound 5f, 1-((4-Chlorophenyl)sulfonyl)-3-methylidene-2-(propan-2-yl)-2,3-dihydroquinolin-4(1H)-one] | 230 ± 10 |  |  | < 300 | 990 ± 70 | 860 ± 20 | 126 |  | 
7 | C=C1C(=O)c2ccccc2N(S(=O)(=O)c2ccc(Cl)cc2)C1c1ccccc1 (stereo not shown) [Compound 5g] |  |  |  | 780 ± 70 |  | 1890 ± 30 | 178 |  | 
8 | C=C1C(=O)c2ccccc2N(S(=O)(=O)c2ccc(Cl)cc2)C1c1ccc(OC)cc1 (stereo not shown) [Compound 5h, 1-((4-Chlorophenyl)sulfonyl)-2-(4-methoxyphenyl)-3-methylidene-2,3-dihydroquinolin-4(1H)-one] |  |  |  | 920 ± 10 |  | 2100 ± 160 | 140 |  | 
9 | C=C1C(=O)c2cc(OC)c(OC)cc2N(S(=O)(=O)c2ccc(C)cc2)C1CC (stereo not shown) [Compound 5i, 2-Ethyl-6,7-dimethoxy-3-methylidene-1-tosyl-2,3-dihydroquinolin-4(1H)-one] |  |  |  | 370 ± 20 | 420 ± 80 | 1010 ± 50 | 168 |  | 
10 | C=C1C(=O)c2cc(OC)c(OC)cc2N(S(=O)(=O)c2ccc(C)cc2)C1C(C)C (stereo not shown) [Compound 5j, 6,7-Dimethoxy-3-methylidene-2-(propan-2-yl)-1-tosyl-2,3-dihydroquinolin-4(1H)-one] |  |  |  | 430 ± 20 | 990 ± 70 | 1440 ± 70 | 150 |  | 
11 | C=C1C(=O)c2cc(OC)c(OC)cc2N(S(=O)(=O)c2ccc(C)cc2)C1c1ccccc1 (stereo not shown) [Compound 5k, 6,7-Dimethoxy-3-methylidene-2-phenyl-1-tosyl-2,3-dihydroquinolin-4(1H)-one] |  |  |  | 580 ± 20 |  | 1460 ± 90 | 196 |  | 
12 | C=C1C(=O)c2cc(OC)c(OC)cc2N(S(=O)(=O)c2ccc(C)cc2)C1c1ccc(OC)cc1 (stereo not shown) [Compound 5l, 6,7-Dimethoxy-2-(4-methoxyphenyl)-3-methylidene-1-tosyl-2,3-dihydroquinolin-4(1H)-one] |  |  |  | 1480 ± 60 |  | 1150 ± 40 | 196 |  | 
13 | C=C1C(=O)c2cc(Cl)ccc2N(S(=O)(=O)c2ccc(C)cc2)C1CC (stereo not shown) [Compound 5m, 6-Chloro-2-ethyl-3-methylidene-1-tosyl-2,3-dihydroquinolin-4(1H)-one] |  |  |  | 1750 ± 30 |  | 3480 ± 420 | 126 |  | 
14 | C=C1C(=O)c2cc(Cl)ccc2N(S(=O)(=O)c2ccc(C)cc2)C1C(C)C (stereo not shown) [Compound 5n, 6-Chloro-3-methylidene-2-(propan-2-yl)-1-tosyl-2,3-dihydroquinolin-4(1H)-one] |  |  |  | 670 ± 10 | 680 ± 30 | 1650 ± 50 | 130 |  | 
15 | C=C1C(=O)c2cc(Cl)ccc2N(S(=O)(=O)c2ccc(C)cc2)C1c1ccccc1 (stereo not shown) [Compound 5o, 6-Chloro-3-methylidene-2-phenyl-1-tosyl-2,3-dihydroquinolin-4(1H)-one] |  |  |  | 2040 ± 50 |  | 3670 ± 410 | 162 |  | 
16 | C=C1C(=O)c2cc(Cl)ccc2N(S(=O)(=O)c2ccc(C)cc2)C1c1ccc(OC)cc1 (stereo not shown) [Compound 5p, 6-Chloro-2-(4-methoxyphenyl)-3-methylidene-1-tosyl-2,3-dihydroquinolin-4(1H)-one] |  |  |  | 2070 ± 20 |  | 3600 ± 190 | 150 |  | 
17 | C=C1C(=O)c2cc(Br)ccc2N(S(=O)(=O)c2ccc(C)cc2)C1CC (stereo not shown) [Compound 5q, 6. -Bromo-2-ethyl-3-methylidene-1-tosyl-2,3-dihydroquinolin-4(1H)-one] |  |  |  | 610 ± 40 | 1000 ± 220 | 1830 ± 150 | 132 |  | 
18 | C=C1C(=O)c2cc(Br)ccc2N(S(=O)(=O)c2ccc(C)cc2)C1C(C)C (stereo not shown) [Compound 5r, 6-Bromo-3-methylidene-2-(propan-2-yl)-1-tosyl-2,3-dihydroquinolin-4(1H)-one] | 190 ± 30 |  |  | < 300 | 470 ± 30 | 830 ± 20 | 118 |  | 
19 | C=C1C(=O)c2cc(Br)ccc2N(S(=O)(=O)c2ccc(C)cc2)C1c1ccccc1 (stereo not shown) [Compound 5s, 6-Bromo-3-methylidene-2-phenyl-1-tosyl-2,3-dihydroquinolin-4(1H)-one] |  |  |  | 620 ± 10 |  | 2670 ± 50 | 162 |  | 
20 | C=C1C(=O)c2cc(Br)ccc2N(S(=O)(=O)c2ccc(C)cc2)C1c1ccc(OC)cc1 (stereo not shown) [Compound 5t, 6-Bromo-2-(4-methoxyphenyl)-3-methylidene-1-tosyl-2,3-dihydroquinolin-4(1H)-one] |  |  |  | 740 ± 60 |  | 2810 ± 50 | 168 |  | 
21 | CCOP(=O)(OCC)C1=C(O)c2ccccc2N(S(=O)(=O)c2ccccc2)C1CC (stereo not shown) [Compound 10a] |  |  |  |  |  |  |  | 20.6 | 26.4

From article PMC9181899, “Synthesis and Anticancer Properties of New 3-Methylidene-1-sulfonyl-2,3-dihydroquinolin-4(1H)-ones” (Molecules, 2022)
